{"source": "patent US3968230A", "about": "“Compositions containing benzodiazepindiones and method of use” (American Cyanamid Company, priority 1975, dated 1976)", "system": "Clonic Seizures Caused by Pentylenetetrazole", "assay": "Protection against clonic seizures caused by pentylenetetrazole in rats", "assay_type": "in vivo", "details": "oral; for ED50: Rattus norvegicus, 2% starch vehicle, groups of at least 5 rats, pentylenetetrazole 21 to 23 mg/kg i.v. at estimated time of peak effect, protection of 50% of animals (Litchfield and Wilcoxon), read-out: Median Effective Oral Dose ED50 (protection against clonic seizures caused by pentylenetetrazole); for effectiveness as anxiolytic agent relative to the respective dextrorotatory and racemic forms of the desmethyl prior art compound (Compounds 3 and 4): rats, from ED50 table", "procedure": "The anti-anxiety properties of the active components of the present invention have been established in a test which indicates anxiolytic activity by a measure of protection from convulsions resulting from the administration of pentylenetetrazol. Graded dose levels of the dextro and racemic forms of the compound 1,2,3,11a-tetrahydro-10-mthyl-5H-pyrrolo[2,1-c] [1,4]benzodiazepin-5,11(10H)-dione are administered orally, in a 2% starch vehicle, to groups of at least 5 rats. At the estimated time of peak effect, the rats are treated intravenously with pentylenetetrazole at a dose of 21 to 23 mg./kg. of body weight. This dose is estimated to cause clonic seizures in 99% of unprotected rats. The effective dose of the test compound for protection of 50% of the animals is calculated by the method of J. T. Litchfield and F. Wilcoxon, Journal of Pharmacology and Experimental Therapeutics, 96, 99 (1949). The results are given in the table which follows in comparison with Librium (chlordiazepoxide), Valium (diazepam) and the dextro and racemic forms of 1,2,3,11 a-tetrahydro-5H-pyrrolo[2,1-c] [1,4]benzodiazepin-5,11(10H)-dione (U.S. Pat. No. 3,732,212) all of which were tested in exactly the same manner. It has been reported [R. T. Hill and D. R. Tedeschi, \"Animal Testing and Screening Procedures in Evaluating Psychotropic Drugs\" in An Introduction to Psychopharmacology, Eds. R. R. Rech and K. E. Moore, Raven Press, New York, pp. 237-288 (1971) that there is a high degree of correlation between antagonism of pentylenetetrazole seizures in rats and antianxiety effects in higher warm-blooded animals.", "data": [{"smiles": "CNC1=Nc2ccc(Cl)cc2C(c2ccccc2)=[N+]([O-])C1", "note": "[Compound 5, chlordiazepoxide]", "values": [{"measurement": "ED50", "value": 2.5, "unit": "mg/kg"}]}, {"smiles": "O=C1Nc2ccccc2C(=O)N2CCC[C@@H]12", "note": "[Compound 3, Dextro-1,2,3,11a-tetrahydro-5H-pyrrolo[2,1-c]-[1,4]-benzodiazepin-5,11(10H)-dione]", "values": [{"measurement": "ED50", "value": 35, "unit": "mg/kg"}]}, {"smiles": "CN1C(=O)[C@@H]2CCCN2C(=O)c2ccccc21", "note": "[Compound 1, Dextro-1,2,3,11a-tetrahydro-10-methyl-5H-pyrrolo[2,1-c][1,4]benzodiazepin-5,11(10H)-dione]", "values": [{"measurement": "ED50", "value": 10, "unit": "mg/kg"}, {"measurement": "effectiveness as anxiolytic agent relative to the respective dextrorotatory and racemic forms of the desmethyl prior art compound (Compounds 3 and 4)", "value": "far more effective"}]}, {"smiles": "CN1C(=O)CN=C(c2ccccc2)c2cc(Cl)ccc21", "note": "[Compound 6, diazepam]", "values": [{"measurement": "ED50", "value": 1.8, "unit": "mg/kg"}]}, {"smiles": "CN1C(=O)C2CCCN2C(=O)c2ccccc21", "note": "(racemic) [Compound 2, Racemic-1,2,3,11a-tetrahydro-10-methyl-5H-pyrrolo[2,1-c][1,4]benzodiazepin-5,11(10H)-dione]", "values": [{"measurement": "ED50", "value": 20, "unit": "mg/kg"}, {"measurement": "effectiveness as anxiolytic agent relative to the respective dextrorotatory and racemic forms of the desmethyl prior art compound (Compounds 3 and 4)", "value": "far more effective"}]}, {"smiles": "O=C1Nc2ccccc2C(=O)N2CCCC12", "note": "(racemic) [Compound 4, Racemic-1,2,3,11a-tetrahydro-5H-pyrrolo[2,1-c]-[1,4]benzodiazepin-5,11(10H)-dione]", "values": [{"measurement": "ED50", "value": 70, "unit": "mg/kg"}]}]}
